Key:
[1] = Body weight of mice after i.v. dosing; assay type: in vivo, C57bl/6 mice; settings: 5 mg/kg group (not shown)
Method: (§1) Study 13: Compound 1 was administered i.v. to C57bl/6 mice at 0.165 mg/kg to 5 mg/kg. CD25+ cell abundance was increased in animals receiving the highest dose of 5 mg/kg (FIG. 14), as was body weight in the same group (not shown).

[2] = system: CMV specific CD8+ T cells; test: CMV cultures: phenotype of CMV specific CD8+ T cells; assay type: cell-based, Human; settings: CMV antigen, 6 days
Method: Human peripheral blood mononuclear cells (PBMCs) were purified from healthy CMV positive donors with Ficoll-Paque density centrifugation. The PBMC were labeled with 5 μM celltrace violet (Invitrogen) in PBS for 15 minutes and then washed with complete cell culture medium. The labeled PBMC was cultured in the presence of a peptide library spanning the CMV pp65 protein (1 μg peptide/ml, JPT) in AIM-V media (Invitrogen) supplemented with L-glutamine, Sodium pyruvate (Sigma), 10% fetal bovine serum, 100 μg/mL penicillin and 100 μg/mL streptomycin (Hyclone) for 6-8 days in 37° C., 5% CO2. Cell proliferation was assessed with flow cytomtery using a BD FACS Canto II flow cytometer.
Study 7: Virus specific T cell proliferation was also affected by compound 1. […] CD127 is crucial for T cell homeostasis, differentiation and function, and reduced expression correlates with disease severity in HIV and other chronic viral diseases (Crawley et al. 2012).

[3] = system: Macrophages from healthy donors; test: Cytokine/chemokine secretion from macrophages (cytometric bead assay); assay type: cell-based, Human
Method: FIG. 10: Interferon-gamma secretion (as measured by cytometric bead assay) from macrophages stimulated with indicated compound for 48 h.
FIG. 11: Chemokine RANTES secretion (as measured by cytometric bead assay) from PBMC or macrophages stimulated with indicated compound for 48 h.
FIG. 12: IL12p70 secretion (as measured by cytometric bead assay) from PBMC or macrophages stimulated with indicated compound for 48 h.
(§2) FIG. 13: IL1b secretion (as measured by cytometric bead assay) from PBMC, macrophages or CD4 T cells stimulated with indicated compound for 48 h.
Study 9: Macrophages from healthy donors where exposed to compounds 1 or 2 for 48 hours. […] Compound 1 is therefore able to induce IFN-gamma secretion in macrophages from healthy donors.
Study 10: PBMCs and macrophages where exposed to compounds 1 or 2 for 2 days (FIG. 11).
Study 11: PBMCs and macrophages where exposed to compounds 1 and 2 for 2 days.
(§3) Study 12: PBMCs, macrophages and CD4+ T cells where exposed to compounds 1 and 2 for 2 days.

[4] = system: PBMCs from CMV infected donors; test: IFN-gamma secretion from PBMCs of CMV infected donors with CMV antigen (cytometric bead assay); assay type: cell-based, Human; settings: 3 days
Excerpt: FIG. 9: Interferon-gamma secretion (as measured by cytometric bead assay) from PBMCs (from a CMV+ donor) grown with CMV peptides in the presence or absence of compound 1 or A for 5 days.
Study 8: PBMCs from CMV infected donors cultured in the presence of CMV antigen where either untreated or exposed to compound 1 or compound 2 for 3 days.

T cells in PBMC = test: T cell proliferation, Cell Trace Violet and flow cytometry; assay type: cell-based, Human; settings: 6 days in the presence of IL-2
Method: FIG. 7. CD4 T cell proliferation after 6 days stimulation with compound 1, measured with proliferation dye Celltrace violet (Invitrogen) and flow cytometry. Untreated cells (UNT) or compound A were used as controls.
Study 6: PBMC were stimulated with compound 1 and cultured in RPMI media for 6 days in the presence of IL-2 (Miltenyi Biotechnologies) and Cell Trace Violet Dye (Invitrogen). Proliferation was measured with flow cytometry.

CD25+ cells = test: CD25 expression in blood of mice after i.v. dosing; assay type: in vivo, C57bl/6 mice; settings: highest dose of 5 mg/kg, 24 h
Method: FIG. 14: % CD25high cells in blood of C57bl/6 mice injected 24 h previously with indicated dose of compound 1. CD25 expression was measured by flow cytometry.
as §1

CD4+ T cells = test: IL-1beta secretion from CD4+ T cells (cytometric bead assay); assay type: cell-based, Human; settings: 2 days
Method: as §2, §3

[5] = system: peripheral blood mononuclear cells (PBMC); test: Marker expression on PBMC by flow cytometry; assay type: cell-based, Human; settings: 24 h
Method: Human peripheral blood mononuclear cells (PBMCs) were purified from healthy donors with Ficoll-Paque density centrifugation. Cells were cultured in complete RPMI-1640 media (Invitrogen) supplemented with 25 mM HEPES, L-glutamine, Sodium pyruvate (Sigma), 10% fetal bovine serum, 100 μg/mL penicillin and 100 μg/mL streptomycin (Hyclone) for 24-72 hours in 37° C., 5% CO2 and stimulated with and increasing concentrations of compound 1 and 2. Cells were then washed in PBS and stained with monoclonal antibodies specific for cell surface markers (BD Pharmingen) and analysed with flow cytomtetry using a BD FACS Canto II flow cytometer. All samples were tested in duplicates.
Human peripheral blood mononuclear cells (PBMCs) were purified from healthy donors with Ficoll-Paque density centrifugation. Cells were cultured in complete RPMI-1640 medium (Invitrogen) supplemented with 25 mM HEPES, L-glutamine, Sodium pyruvate (Sigma), 10% fetal bovine serum, 100 μg/mL penicillin and 100 μg/mL streptomycin (Hyclone). Cells were stimulated for 24 h (study 1-4) or 48 h to 1 week (study 5) in 37° C., 5% CO2 with increasing concentrations of compound 1 and 2 in tissue culture plates. The cells were removed from the plate, washed in PBS and analysed for expression of cell specific surface markers and MHC class I with flow cytomtery using monoclonal antibodies from BD Pharmingen and a FACS Canto II flow cytometer.

human TLR2 = molecular target: T1, human TLR2 (Homo sapiens, UniProt O60603); test: TLR2 reporter assay (HEK-293-TLR, SEAP); assay type: cell-based
T1 construct: host or cells: recombinant HEK-293-TLR cell lines
Method: Samples and controls were tested in duplicate on recombinant HEK-293-TLR cell lines using a cell reporter assay at Invivogen using their standard assay conditions. These cell lines functionally over-express human TLR2 protein as well as a reporter gene which is a secreted alkaline phosphatase (SEAP). The production of this reporter gene is driven by an NFkB inducible promoter. The TLR reporter cell lines activation results are given as optical density values (OD).
20 μl of each test article were used to stimulate the hTLR2 reporter cell lines in a 200 μl of final reaction volume. Samples were tested in duplicate, with at least two concentrations tested—20 uM and 10 uM.
Compounds were tested using a TLR2 reporter assay (see general methods) that measured for stimulation of the TLR2 receptor. Stimulatory effect was measured as an increase in optical density (OD) due to release of secreted alkaline phosphatase (SEAP) and is shown in table 4: […]

T1 sequence (O60603 21-784): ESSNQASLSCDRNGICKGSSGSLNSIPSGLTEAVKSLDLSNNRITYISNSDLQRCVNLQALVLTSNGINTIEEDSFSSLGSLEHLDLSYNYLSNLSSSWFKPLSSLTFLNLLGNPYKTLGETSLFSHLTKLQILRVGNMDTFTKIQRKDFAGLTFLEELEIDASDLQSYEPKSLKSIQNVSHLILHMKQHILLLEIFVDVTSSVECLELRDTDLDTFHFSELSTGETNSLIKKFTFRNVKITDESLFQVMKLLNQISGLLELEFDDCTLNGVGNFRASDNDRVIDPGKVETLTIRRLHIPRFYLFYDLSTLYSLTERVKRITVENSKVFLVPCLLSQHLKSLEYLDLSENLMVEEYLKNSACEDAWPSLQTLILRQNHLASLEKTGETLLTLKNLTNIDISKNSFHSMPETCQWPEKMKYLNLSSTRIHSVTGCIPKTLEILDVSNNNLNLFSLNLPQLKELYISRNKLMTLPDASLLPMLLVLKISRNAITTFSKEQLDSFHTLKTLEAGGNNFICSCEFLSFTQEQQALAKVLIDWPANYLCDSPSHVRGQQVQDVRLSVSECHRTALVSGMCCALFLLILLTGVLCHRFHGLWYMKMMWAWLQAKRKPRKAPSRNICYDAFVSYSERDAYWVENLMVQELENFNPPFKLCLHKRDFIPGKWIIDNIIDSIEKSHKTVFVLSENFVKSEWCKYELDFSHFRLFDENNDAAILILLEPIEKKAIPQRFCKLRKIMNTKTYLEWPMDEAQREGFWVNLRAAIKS

CC[C@H]1OC(=O)[C@H](C)[C@@H](O[C@H]2C[C@@H](N(C)C)[C@H](O)[C@@H](C)O2)[C@H](C)[C@@H](O)[C@](C)(O)C[C@@H](C)CN(C)[C@H](C)[C@@H](O)[C@]1(C)O [Compound 1]
body weight [1]: increased
expression of IL-7 receptor a (CD127) on activated CMV specific CD8+ T cells [2]: increased expression
IL-1beta secretion, macrophages ([3]; 2 days): increased
IL-12p70 secretion, macrophages ([3]; 2 days): secreted IL-12p70
RANTES expression, macrophages ([3]; 2 days): high expression
IFN-gamma secretion, macrophages ([3]; 48 hours): secreted IFN-gamma
IFN-gamma secretion, PBMCs with CMV antigen [4]: induced secretion of high levels
cytokine driven proliferation of T cells (T cells in PBMC): altered cytokine driven proliferation profile
CD25+ cell abundance (CD25+ cells): increased
IL-1beta secretion, CD4+ T cells (CD4+ T cells): no IL-1beta was induced
activation marker CD69 on CD4+ T cells and B cells ([5]; 1 μM): upregulated
MHC class I (HLA-ABC) on T- and B-cells [5]: upregulation
MHC class II (HLA-DR) on monocytes [5]: upregulation
co-stimulatory molecule CD80 on monocytes [5]: upregulation
lowest concentration at which TLR2 was stimulated (concentrations down to) (human TLR2): 5 µM
OD after addition of 5 μM test article (human TLR2; 5 μM): 0.111 OD
OD after addition of 10 μM test article (human TLR2; 10 μM): 0.202 OD
OD after addition of 20 μM test article (human TLR2; 20 μM): 0.458 OD

From patent US11059844B2, “Immune stimulating macrolides” (ISR IMMUNE SYSTEM REGULATION HOLDING AB (PUBL), priority 2017, dated 2021)
